From patent US9469615B2, “Quinoxalines and AZA-quinoxalines as CRTH2 receptor modulators” (Merck Sharp & Dohme Corp., priority 2010, dated 2016)

target: T1, hCRTH2 (Homo sapiens, UniProt Q9Y5Y4); assay: Radioligand binding assay ([3H]PGD2 competition, HEK-hCRTH2 membranes); details: [3H]PGD2 competition, Table B
T1 construct: expressed in transfected cells; host or cells: HEK (human embryonic kidney) cells expressing hCRTH2; membrane preparation
T1 sequence (Q9Y5Y4 1-395): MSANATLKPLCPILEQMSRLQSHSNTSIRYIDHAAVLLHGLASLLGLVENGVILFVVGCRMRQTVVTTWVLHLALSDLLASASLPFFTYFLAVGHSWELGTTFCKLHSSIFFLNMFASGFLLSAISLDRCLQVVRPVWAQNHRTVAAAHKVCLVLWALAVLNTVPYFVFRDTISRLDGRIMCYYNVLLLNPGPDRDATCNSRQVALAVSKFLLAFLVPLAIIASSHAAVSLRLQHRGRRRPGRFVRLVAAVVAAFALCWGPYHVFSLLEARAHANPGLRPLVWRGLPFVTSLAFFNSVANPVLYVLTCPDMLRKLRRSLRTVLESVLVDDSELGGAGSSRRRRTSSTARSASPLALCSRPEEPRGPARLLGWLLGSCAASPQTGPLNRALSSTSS
In short: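 Using membranes of an HEK line stably carrying hCRTH2, ligands were tested against [3H]PGD2 (3.0 nM) in pH 7.4 Tris buffer containing 2 mM MnCl2 and 1 mM EDTA. After one hour at room temperature, filters were washed cold and counted.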

| SMILES | Ki [nM] |
| --- | --- |
| O=C(O)CCCCc1nc2cc(C(=O)N3CC[C@@H](c4ccc(F)cc4)C3)ccc2nc1-c1ccc(Cl)cc1 [compound 560, (S)-5-(3-(4-chlorophenyl)-7-(3-(4-fluorophenyl)pyrrolidine-1-carbonyl)quinoxalin-2-yl)pentanoic acid] | 0.1 to 2 |
| O=C(O)CCCCc1nc2cc(C(=O)NC3CCCOc4ccccc43)ccc2nc1-c1ccc(Cl)cc1 (stereo not shown) [compound 561, 5-(3-(4-chlorophenyl)-7-((2,3,4,5-tetrahydrobenzo[b]oxepin-5-yl)carbamoyl)quinoxalin-2-yl)pentanoic acid] | 0.1 to 2 |
| O=C(O)CCCCc1nc2cc(C(=O)N[C@H]3COc4ccccc43)ccc2nc1-c1ccc(Cl)cc1 [compound 562, (R)-5-(3-(4-chlorophenyl)-7-((2,3-dihydrobenzofuran-3-yl)carbamoyl)quinoxalin-2-yl)pentanoic acid] | 0.1 to 2 |
| O=C(O)CCCCc1nc2cc(C(=O)N[C@@H]3COc4ccccc43)ccc2nc1-c1ccc(Cl)cc1 [compound 563, (S)-5-(3-(4-chlorophenyl)-7-((2,3-dihydrobenzofuran-3-yl)carbamoyl)quinoxalin-2-yl)pentanoic acid] | 0.1 to 2 |
| CC1(C)CC(NC(=O)c2ccc3nc(-c4ccc(Cl)cc4)c(CCCCC(=O)O)nc3c2)c2ccccc2O1 (stereo not shown) [compound 564, 5-(3-(4-chlorophenyl)-7-((2,2-dimethylchroman-4-yl)carbamoyl)quinoxalin-2-yl)pentanoic acid] | 2.1 to 20 |
| O=C(O)CCCCc1nc2cc(C(=O)N3CCC4(CCCc5ccccc54)C3)ccc2nc1-c1ccc(Cl)cc1 (stereo not shown) [compound 565, 5-(3-(4-chlorophenyl)-7-(3,4-dihydro-2H-spiro [naphthalene-1,3′-pyrrolidin]-1′-ylcarbonyl)quinoxalin-2-yl)pentanoic acid] | 0.1 to 2 |
| O=C(O)CCCCc1nc2cc(C(=O)NC3C(=O)Nc4ccccc43)ccc2nc1-c1ccc(Cl)cc1 (stereo not shown) [compound 566, 5-(3-(4-chlorophenyl)-7-((2-oxoindolin-3-yl)carbamoyl)quinoxalin-2-yl)pentanoic acid] | 2.1 to 20 |
| O=C(O)CCCCc1nc2cc(C(=O)N3CCC4(CC3)NC(=O)Cc3ccccc34)ccc2nc1-c1ccc(Cl)cc1 [compound 567] | 0.1 to 2 |
| O=C(O)CCCCc1nc2cc(C(=O)N3CCC4(CC3)Cc3ccccc3C(=O)N4)ccc2nc1-c1ccc(Cl)cc1 [compound 568, 5-(3-(4-chlorophenyl)-7-(1-oxo-2,4-dihydro-1H-spiro[isoquinoline-3,4′-piperidin]-1′-ylcarbonyl)quinoxalin-2-yl)pentanoic acid] | 2.1 to 20 |
| O=C(O)CCCCc1nc2cc(C(=O)N[C@@H]3CCSc4ccccc43)ccc2nc1-c1ccc(Cl)cc1 [compound 569, (R)-5-(3-(4-chlorophenyl)-7-(thiochroman-4-ylcarbamoyl)quinoxalin-2-yl)pentanoic acid] | 0.1 to 2 |
| O=C(O)CCCCc1nc2cc(C(=O)N[C@@H]3CCCCc4ccccc43)ccc2nc1-c1ccc(Cl)cc1 [compound 570, (R)-5-(3-(4-chlorophenyl)-7-((6,7,8,9-tetrahydro-5H-benzo[7]annulen-5-yl)carbamoyl)quinoxalin-2-yl)pentanoic acid] | 2.1 to 20 |
| C[C@H](NC(=O)c1ccc2nc(-c3ccc(F)cc3)c(CCCCC(=O)O)nc2c1)c1ccc(F)c2ccccc12 [compound 571, (S)-5-(7-((1-(4-fluoronaphthalen-1-yl)ethyl)carbamoyl)-3-(4-fluorophenyl)quinoxalin-2-yl)pentanoic acid] | 2.1 to 20 |
| C[C@@H](NC(=O)c1ccc2nc(-c3ccc(F)cc3)c(CCCCC(=O)O)nc2c1)c1ccc(F)c2ccccc12 [compound 572, (R)-5-(7-((1-(4-fluoronaphthalen-1-yl)ethyl)carbamoyl)-3-(4-fluorophenyl)quinoxalin-2-yl)pentanoic acid] | 20.1 to 200 |
| O=C(O)CCCCc1nc2cc(C(=O)N[C@@H]3COc4ccccc43)ccc2nc1-c1ccccc1 [compound 573, (S)-5-(7-((2,3-dihydrobenzofuran-3-yl)carbamoyl)-3-phenylquinoxalin-2-yl)pentanoic acid] | 2.1 to 20 |
| O=C(O)CCCCc1nc2cc(C(=O)N[C@H]3COc4ccccc43)ccc2nc1-c1ccccc1 [compound 574, (R)-5-(7-((2,3-dihydrobenzofuran-3-yl)carbamoyl)-3-phenylquinoxalin-2-yl)pentanoic acid] | 2.1 to 20 |
| CS(=O)(=O)N1CCC(NC(=O)c2ccc3nc(-c4ccccc4)c(CCCCC(=O)O)nc3c2)c2ccccc21 (stereo not shown) [compound 575, 5-(7-((1-(methylsulfonyl)-1,2,3,4-tetrahydroquinolin-4-yl)carbamoyl)-3-phenylquinoxalin-2-yl)pentanoic acid] | 0.1 to 2 |
| O=C(O)CCCCc1nc2cc(C(=O)NC3CC(=O)Nc4ccccc43)ccc2nc1-c1ccccc1 (stereo not shown) [compound 576, 5-(7-((2-oxo-1,2,3,4-tetrahydroquinolin-4-yl)carbamoyl)-3-phenylquinoxalin-2-yl)pentanoic acid] | 2.1 to 20 |
| O=C(O)CCCCc1nc2cc(C(=O)N3CC[C@H](c4ccc(F)cc4)C3)ccc2nc1-c1ccc(Cl)cc1 [compound 577, (R)-5-(3-(4-chlorophenyl)-7-(3-(4-fluorophenyl)pyrrolidine-1-carbonyl)quinoxalin-2-yl)pentanoic acid] | 0.1 to 2 |
| O=C(O)CCCCc1nc2cc(C(=O)NC3CCCOc4ccccc43)ccc2nc1-c1ccc(Cl)cc1 (stereo not shown) [compound 579, 5-(3-(4-chlorophenyl)-7-((2,3,4,5-tetralaydrobenzo[b]oxepin-5-yl)carbamoyl)quinoxalin-2-yl)pentanoic acid] | 2.1 to 20 |
| O=C(O)CCCCc1nc2cc(C(=O)N[C@H]3COc4ccccc43)ccc2nc1-c1ccc(Cl)cc1 [compound 580, (R)-5-(3-(4-chlorophenyl)-7-((2,3-dihydrobenzofuran-3-yl)carbamoyl)quinoxalin-2-yl)pentanoic acid] | 0.1 to 2 |
| CC1(C)CC(NC(=O)c2ccc3nc(-c4ccc(Cl)cc4)c(CCCCC(=O)O)nc3c2)c2ccccc2O1 (stereo not shown) [compound 582, 5-(3-(4-chlorophenyl)-7-((2,2-dimethylchroman-4-yl)carbamoyl)quinoxalin-2-yl)pentanoic acid] | 0.1 to 2 |
| O=C(O)CCCCc1nc2cc(C(=O)N3CCC4(CCCc5ccccc54)C3)ccc2nc1-c1ccc(Cl)cc1 (stereo not shown) [compound 583, 5-(3-(4-chlorophenyl)-7-(3,4-dihydro-2H-spiro [naphthalene-1,3′-pyrrolidin]-1′-ylcarbonyl)quinoxalin-2-yl)pentanoic acid] | 0.1 to 2 |
| O=C(O)CCCCc1nc2cc(C(=O)NC3C(=O)Nc4ccccc43)ccc2nc1-c1ccc(Cl)cc1 (stereo not shown) [compound 584, 5-(3-(4-chlorophenyl)-7-((2-oxoindolin-3-yl)carbamoyl)quinoxalin-2-yl)pentanoic acid] | 2.1 to 20 |
| COc1ccc2c(c1)CCC[C@H]2NC(=O)c1ccc2nc(-c3ccc(F)cc3)c(CCCC(F)(F)C(=O)O)nc2c1 [compound 589, (R)-2,2-difluoro-5-(3-(4-fluorophenyl)-7-((6-methoxy-1,2,3,4-tetrahydro-naphthalen-1-yl)carbamoyl)quinoxalin-2-yl)pentanoic acid] | 20.1 to 200 |
| O=C(O)CCCCc1nc2cc(C(=O)N3CCN(C(=O)OCc4ccccc4)CC3)ccc2nc1-c1ccc(Cl)cc1 [compound 590, 5-(7-(4-((benzyloxy)carbonyl)piperazine-1-carbonyl)-3-(4-chlorophenyl)quinoxalin-2-yl)pentanoic acid] | 2.1 to 20 |
